Entries after “also recorded” stand apart in the source; their conditions may differ.
Legend:
[1] = tested on: S. aureus SA113Δica (ATCC 35556Δica::tet); assay: Biofilm formation by ica deletion mutant on polycarbonate surface; type: cell-based, Staphylococcus aureus; conditions: 6 hrs
Protocol: (§1) To quantify the amount of biofilm formed on polycarbonate surface, a 13-mm-diameter polycarbonate disc (Thermanox, Nalgene Nunc International, Rochester, N.Y., USA) was placed in a well of a 24-well microtiter plate, followed by the addition of 1 mL aliquot of the diluted bacterial culture. After incubation at 37° C. for a designated period of time, viable cells were washed off the surface of the polycarbonate disc with PBS and counted as described above, while the PBS-washed polycarbonate disc was subjected to crystal violet staining for biofilm quantification as described above.

S. aureus SA113 [2] = assay: CFU counting of cells adhered to polycarbonate surface; type: cell-based, Staphylococcus aureus
Description: To count the number of viable cells, the removed suspended cells were suspended in PBS by pipetting, and the resultant cell suspension was sonicated and serially diluted and subsequently plated on TSBg agar plate for colony forming unit (CFU) counting according to a method described earlier (S. Schlag et al. (2007), J. Bacteriol., 189:7911-7919).
as §1
In addition to biofilm formation, the number of cells attached to polystyrene surface and polycarbonate surface were also counted.

S. aureus SA113 [3] = assay: Scanning electron microscopy of cells on polycarbonate discs; type: cell-based, Staphylococcus aureus; conditions: 3.13 μM, 6 hrs
Protocol: S. aureus SA113 cells were grown on polycarbonate discs in the presence or absence of 3.13 μM β-PGG. After 6 hours incubation, the discs were washed three times with PBS to remove planktonic cells and then prepared for SEM examination as described elsewhere (Guo-Xian Wei et al. (2006), supra). The samples thus prepared were observed using a Hitachi S-5000 scanning electron microscope.

[4] = tested on: polysaccharide intercellular adhesion (PIA) production by S. aureus SA113; assay: Quantification of PIA by chemiluminescence (WGA-biotin/HRP-streptavidin); type: cell-based, Staphylococcus aureus; conditions: 6 hrs; for decrease of the amount of PIA formed on the cell surface: densitometer, untreated = 100%
Protocol: The amount of PIA was determined by chemiluminescence detection using horseradish peroxidase-conjugated streptavidin (Pierce) according to a method described elsewhere (S. Schlag et al. (2007), supra). Briefly, a tested bacterial strain prepared in TSBg broth was added with β-PGG at a designated concentration and then cultured in a 9 cm petri dish for 6 hrs. The bacterial cells grown in the petri dish were collected by scraping, followed by centrifugation, and the resultant cell pellets were redissolved by addition of 3 mL of 0.5 M EDTA (pH 8.0) for every gram (wet weight) of cell pellet, followed by boiling at 100° C. for 10 min. After centrifugation at 10,000 g for 30 min, the resultant supernatant was 100-fold diluted. An 80 μL aliquot of the diluted supernatant was incubated with 20 μL of proteinase K (10 mg/mL, in dH2O) at 37° C. for 2 hrs, followed by blotting onto a PVDF membrane (Millipore) using a 96-well dot-blot apparatus. After blotting, the membrane was dried and soaked in a first blocking buffer (containing 3% bovine serum albumin (BSA) and 0.05% Tween-20 in PBS), followed by incubation at room temperature for 1 hr in the first blocking buffer containing 0.8 μg/mL wheat germ agglutinin conjugated with biotin (WGA-biotin, Sigma-Aldrich). After sequentially washing with the first blocking buffer and a second blocking buffer (containing 1% BSA and 0.05% Tween-20 in PBS), the membrane was incubated with horseradish peroxidase-conjugated streptavidin (Pierce) for 30 min, and washed 4 times with the first blocking buffer, followed by incubation with 1 mL of a substrate reagent (Luminol/Enhancer solution and Stable Peroxide solution, Pierce) at room temperature for 5 min. Thereafter, the membrane was detected by autoradiography using X-ray film, and the intensity of each spot formed on the X-ray film was quantified using a densitometer (LAS-3000, Fujifilm). The relative PIA amount produced by the tested bacterial strain was determined based on the detected intensity, with the amount of PIA from bacterial cells without PGG treatment being set as 100%.
To detect PIA in culture medium, the medium was concentrated using an Amicon-Ultra4 centrifuge filter (Millipore, Billerica, Mass., USA) prior to extraction.
Similar experiments were performed using four clinical isolates of S. aureus, namely MSSA strains SA13 and SA288, and MRSA strains SA44 and SA 130.

[5] = tested on: human epithelial and fibroblast cells; assay: Toxicity to human cells (summary statement); type: cell-based; conditions: concentrations below 50 μM
Protocol: Human HepG2 cells (ATCC HB-8065) and 293T cells (ATCC CRL-11268) were cultured in Dulbecco's modified Eagle's medium (DMEM) supplemented with 10% (v/v) fetal calf serum. Human MRC-5 cells (ATCC CCL171) and HEp-2 cells (ATCC CCL-23) were cultured in Eagle's minimum essential medium (MEM) supplemented with 10% fetal calf serum. These four human cell lines were seeded into 24-well polystyrene tissue culture plates at a cell density of 1×10^5 cells/500 μL medium per well, respectively. After incubation at 37° C. for 24 hrs, β-PGG was added into each well in various amounts (0, 6.25, 12.5, 25 and 50 μM). After 24 hr treatment of β-PGG, toxicity of β-PGG to these human cell lines was determined using the 3-(4,5-dimethylthiazol-2-yl)-2,5-diphenyltetrazolium bromide (MTT) method (Xiangshu Piao et al. (2008), supra). Additionally, toxicity of β-PGG to the 293T cells was also determined in medium containing 0% and 2% fetal calf serum. Cells treated with DMSO were used as a negative control.

[6] = tested on: S. aureus clinical strain SA33 (MSSA); assay: Growth (A578) and biofilm (A595) in polystyrene plates; type: cell-based, Staphylococcus aureus; conditions: 12.5 μM β-PGG, 6 hr
Protocol: (§2) An overnight bacterial culture was 200-fold diluted with TSBg, and a 200 μL aliquot of the diluted culture was seeded into each well of 96-well polystyrene microtiter plates and incubated at 37° C. for a designated period of time. Cell growth was determined by measuring the absorbance at 578 nm (A578) with a microtiter plate reader (SpectraMax 340, Molecular Devices). After washing with PBS twice to remove suspended cells, the wells were stained with 0.1% (w/v) crystal violet in 10% ethanol and then treated with 30% acetic acid in dH2O, followed by detecting the absorbance at 595 nm (A595) with the microtiter plate reader to quantify the amount of biofilm formed on polystyrene surface.

[7] = tested on: S. aureus clinical strain SA435 (MRSA); assay: as above; type: cell-based, Staphylococcus aureus; conditions: 12.5 μM β-PGG, 6 hr
Protocol: as §2

S aureus SA113 = assay: Bacterial attachment onto glass coverslips (data not shown); type: cell-based, Staphylococcus aureus

## O=C(OC[C@H]1O[C@@H](OC(=O)c2cc(O)c(O)c(O)c2)[C@H](OC(=O)c2cc(O)c(O)c(O)c2)[C@@H](OC(=O)c2cc(O)c(O)c(O)c2)[C@@H]1OC(=O)c1cc(O)c(O)c(O)c1)c1cc(O)c(O)c(O)c1 [β-PGG, 1,2,3,4,6-penta-O-galloyl-β-D-glucopyranose]
[1]; 3.13 μM
  decrease of the amount of biofilm, polycarbonate surface: 67%
[1]; 12.5 μM
  decrease of the amount of biofilm, polycarbonate surface: 96%
S. aureus SA113 [2]; 6.25 μM, 20 min, DMSO control 7×10^5
  number of cells attached to polycarbonate surface: 2.9×10^5 CFU
S. aureus SA113 [2]; 6.25 μM, 40 min, DMSO control 1.1×10^6
  number of cells attached to polycarbonate surface: 2.3×10^5 CFU
S. aureus SA113 [2]; 6.25 μM, 60 min, DMSO control 2×10^6
  number of cells attached to polycarbonate surface: 3.5×10^5 CFU
S. aureus SA113 [2]; 12.5 μM, 20 min, DMSO control 7×10^5
  number of cells attached to polycarbonate surface: 1.0×10^5 CFU
S. aureus SA113 [2]; 12.5 μM, 40 min, DMSO control 1.1×10^6
  number of cells attached to polycarbonate surface: 8×10^4 CFU
S. aureus SA113 [2]; 12.5 μM, 60 min, DMSO control 2×10^6
  number of cells attached to polycarbonate surface: 5×10^4 CFU
S. aureus SA113 [3]
  web structure (likely PIA) on polycarbonate surface by SEM: caused the web structure to disappear
[4]; 3.13 μM
  decrease of the amount of PIA formed on the cell surface: 7%
[4]; 12.5 μM
  decrease of the amount of PIA formed on the cell surface: 58%
[4]; 50 μM
  decrease of the amount of PIA formed on the cell surface: 87%
[4]; 3.13, 12.5 and 50 μM
  PIA production (extracted from bacterial cells): PIA production was inhibited
  PIA released into the culture medium: decreased after β-PGG treatment in a dose-dependent manner
[5]
  toxicity to human epithelial and fibroblast cells: lacks toxicity; also recorded: not toxic
[6]; 0 μM: 0.79 ± 0.01
  Growth (A578): 0.79 ± 0.04
[6]; 0 μM: 0.80 ± 0.07
  Biofilm (A595): 0.13 ± 0.03
[7]; 0 μM: 0.64 ± 0.10
  Growth (A578): 0.67 ± 0.09
[7]; 0 μM: 0.97 ± 0.09
  Biofilm (A595): 0.46 ± 0.06
S aureus SA113
  bacterial attachment onto glass coverslips: inhibited bacterial attachment onto glass coverslips

Source: patent US9181290B2, “Inhibition of biofilm formation by 1,2,3,4,6-penta-O-galloyl-D-glucopyranose” (CHANG GUNG UNIVERSITY, priority 2011, dated 2015)
